Tests used:
[1] = molecular target: T1, AaegOBP1 (odorant-binding protein, also named AaegOBP39) (Aedes aegypti, UniProt Q6Y2R8); assay: NPN fluorescence displacement/quenching, pH […]; Kd from decreasing phase only ([…]), fluorescence rises at higher doses
T1 construct: recombinant AaegOBP1 (AY189223), periplasmic expression in BL21(DE3), purified and delipidated
T1 sequence (Q6Y2R8 19-143): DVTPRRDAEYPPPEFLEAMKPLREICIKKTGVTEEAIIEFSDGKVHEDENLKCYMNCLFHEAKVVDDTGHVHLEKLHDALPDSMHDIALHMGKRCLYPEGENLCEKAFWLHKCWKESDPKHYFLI

[2] = molecular target: T1, AaegOBP1 (odorant-binding protein, also named AaegOBP39); assay: direct fluorescence titration with NPN, pH […] (Kd […] at pH […])

Structure (SMILES) | Kd [1] | Kd [2]
CCCCCCCCCC[C@H](OC(C)=O)[C@H]1CCCC(=O)O1 (racemic) [MOP, (5 R,6 S)-6-acetoxy-5-hexadecanolide] | 2640 ± 160 nM | –
c1ccc(Nc2cccc3ccccc23)cc1 [NPN, N-phenyl-1-naphthylamine] | – | 3310 ± 480 nM

From article PMC4309172, “Binding of a fluorescence reporter and a ligand to an odorant-binding protein of the yellow fever mosquito, Aedes aegypti” (F1000Research, 2015)
